This note sets out measurements from patent publication US20220332701A1, “HETEROCYCLIC COMPOUNDS AS BCR-ABL INHIBITORS” (ASCENTAGE PHARMA (SUZHOU) CO., LTD., priority 2019, published 2022).

In assay [1] the target is BaF3(T315I) (Homo sapiens, UniProt P00519, T315I, cells depend on it). The assay is described as follows: WST (CCK-8) anti-proliferation assay, BaF3 T315I cells. Conditions: read-out: BaF3(T315I); anti-proliferative IC50, 72 h treatment, CCK-8, BaF3 T315I.
Description: (§1) The anti-proliferative effect of representative Compounds of the Disclosure was determined by a water-soluble tetrazolium (WST)-based assay using Cell Counting Kit-8 (CCK-8). Cells were seeded in 96-well plates and treated with different concentrations of test articles for 72 h. Each treatment was tested in triplicates. Briefly, a series of 9 concentrations were chosen for each test article and added at 100 μl/well into a 96-well plate. Each concentration was tested in triplicates. 100 μl of diluent was added into 3-6 wells in the same plate for cell control group, and another set of 3-6 wells was used as a blank control.
(§2) In each well, 100 μl of cell suspension (containing optimal cell numbers, which creates approximately 100% confluence of cells in control wells based on by the absorbance (OD) value) was dispensed into the same 96-well plate except for the blank well. The plate was then cultured at 37° C. in an incubator in an atmosphere with 5% CO2 for 72 h. At the end of treatments, 20 μl/well of CCK-8 reagent was directly added to each wells. The plate was then incubated at 37° C. in an incubator in an atmosphere with 5% CO2 for 2-4 hour.
(§3) The cells viability was calculated using the mean OD value of triplicated wells following the equation below: (OD sample−OD blank)/(OD cell control−OD blank)×100 IC50 values were calculated with Graphpad Prism 6.0 software using nonlinear regression (curve fitting) type data analysis.
For assay [2], the target named is BaF3(WT) (Homo sapiens, UniProt P00519). The assay is described as follows: WST (CCK-8) anti-proliferation assay, BaF3 WT cells. Conditions: read-out: BaF3(WT); anti-proliferative IC50, 72 h treatment, CCK-8, BaF3 WT.
Description: as §1, §2, §3

Molecules are shown by their SMILES.

With `CCC1c2cc(C(=O)Nc3ccc(OC(F)(F)Cl)cc3)cc(-c3ccn[nH]3)c2N(C(C)C)C1CNC` (stereo not drawn) [VII-24, N-(4-(chlorodifluoromethoxy)phenyl)-3-ethyl-1-isopropyl-2-((methylamino)methyl)-7-(1H-pyrazol-5-yl)indoline-5-carboxamide], the GI50 in assay [1] was 3860 nM; in assay [2] it was 1690 nM.

`CN1CCc2cc(C(=O)Nc3ccc(OC(F)(F)Cl)cc3)cc(-c3ccn[nH]3)c21` [VII-7, N-(4-(chlorodifluoromethoxy)phenyl)-1-methyl-7-(1H-pyrazol-5-yl)indoline-5-carboxamide]: the GI50 in assay [1] turned out to be 144 nM; in assay [2] it was 113 nM.

For `CC1(C)CN(S(C)(=O)=O)c2cc(C(=O)Nc3ccc(OC(F)(F)Cl)cc3)cc(-c3ccn[nH]3)c21` [III-5, N-(4-(chlorodifluoromethoxy)phenyl)-3,3-dimethyl-1-(methylsulfonyl)-4-(1H-pyrazol-5-yl)indoline-6-carboxamide], the GI50 in assay [1] was determined as 418 nM; in assay [2], 61 nM.

On to `CC(C)N1C(=O)C(C)(C)c2cc(C(=O)Nc3ccc(OC(F)(F)Cl)cc3)cc(-c3ccn[nH]3)c21` [VIII-3, N-(4-(chlorodifluoromethoxy)phenyl)-1-isopropyl-3,3-dimethyl-2-oxo-7-(1H-pyrazol-5-yl)indoline-5-carboxamide], for which the GI50 in assay [1] was determined as 1010 nM; in assay [2] it was 313 nM.

In the case of `CC(C)N1c2c(cc(C(=O)Nc3ccc(OC(F)(F)Cl)cc3)cc2-c2ccn[nH]2)CC1CC(=O)N1CCOCC1` (stereo not drawn) [VII-35, N-(4-(chlorodifluoromethoxy)phenyl)-1-isopropyl-2-(2-morpholino-2-oxoethyl)-7-(1H-pyrazol-5-yl)indoline-5-carboxamide], the results for the GI50 in assay [1] and in assay [2] were 1190 nM and 173 nM, respectively.

In the case of `CC1CN(C(C)C)c2cc(C(=O)Nc3ccc(OC(F)(F)Cl)cc3)cc(-c3ccn[nH]3)c21` (stereo not drawn) [III-1, N-(4-(chlorodifluoromethoxy)phenyl)-1-isopropyl-3-methyl-4-(1H-pyrazol-5-yl)indoline-6-carboxamide], the GI50 worked out at 3250 nM in assay [1] and 119 nM in assay [2].

Take `CC(C)N1c2c(cc(C(=O)Nc3ccc(OC(F)(F)Cl)cc3)cc2-c2cncnc2)CC1C(=O)N1CC(O)C1` (stereo not drawn) [VII-14, N-(4-(chlorodifluoromethoxy)phenyl)-2-(3-hydroxyazetidine-1-carbonyl)-1-isopropyl-7-(pyrimidin-5-yl)indoline-5-carboxamide]: the results for the GI50 in assay [1] and in assay [2] were 660 nM and 56 nM, respectively.

Consider `CCC1c2cc(C(=O)Nc3ccc(OC(F)(F)Cl)cc3)cc(-c3ccn[nH]3)c2N(C(C)C)C1CO` (stereo not drawn) [VII-20, N-(4-(chlorodifluoromethoxy)phenyl)-3-ethyl-2-(hydroxymethyl)-1-isopropyl-7-(1H-pyrazol-5-yl)indoline-5-carboxamide], for which the GI50 came to 2180 nM in assay [1] and 165 nM in assay [2].

As to `CC(C)n1ccc2cc(C(=O)Nc3ccc(OC(F)(F)Cl)cc3)cc(-c3ccn[nH]3)c21` [XII-1, N-(4-(chlorodifluoromethoxy)phenyl)-1-isopropyl-7-(1H-pyrazol-5-yl)-1H-indole-5-carboxamide], the figures for the GI50 in assay [1] and in assay [2] were 654 nM and 115 nM, respectively.
